Assay results: ChEMBL document CHEMBL5528053, “Discovery of Novel Isoquinoline Analogues as Dual Tubulin Polymerization/V-ATPase Inhibitors with Immunogenic Cell Death Induction” (J Med Chem, 2024)
The source made the active and inactive calls. The rule behind the calls is not given here.

Experiments:
PC-3 [1] = experiment: Induction of apoptosis in human PC-3 cells assessed as late apoptotic cells at 200 nM measured after 24 hrs by annexin V-FITC and PI staining based flow cytometry analysis (reference value: 2.37%); type: functional
[2] = Antitumor activity against mouse RM1 cells xenografted in immunocompetent […] mouse model assessed as tumor growth inhibition at 10 mg/kg, iv measured every two days for 14 days relative to control; type: functional; conditions: RM1, 336 h, time 14 day, read-out: TGI
RM1 [3] = experiment: Antitumor immunity against mouse RM1 cells homografted in C57BL/6 mouse model assessed as increase in tumor infiltrating CD3+CD8+T cells (CTLs) in spleen at 5 to 10 mg/kg, iv administered every two days for 14 days by flow cytometry analysis; type: functional, organism-based; conditions: dose 5-10 mg/kg, time 14.0 day
PC-3 [4] = experiment: Antiproliferative activity against human PC-3 cells assessed as inhibition of cell growth after 72 hrs by MTT assay; type: functional, cell-based; conditions: PC-3, 72 h
PC-3 [5] = experiment: Induction of apoptosis in human PC-3 cells assessed as viable cells at 200 nM measured after 24 hrs by annexin V-FITC and PI staining based flow cytometry analysis (reference value: 90.6%); type: functional; conditions: read-out: Activity
PC-3 [6] = experiment: Induction of cell cycle arrest in human PC-3 cells assessed as accumulation of cells at G2/M phase at 100 nM incubated for 24 hrs by flow cytometry analysis (reference value: 19.5%); type: functional
[7] = Toxicity in ICR mouse assessed as effect on LDH level at 10 mg/kg, ip measured for 14 days; type: organism-based; conditions: in vivo, 336 h, time 14 day
RM1 [8] = experiment: Antitumor immunity against mouse RM1 cells homografted in C57BL/6 mouse model assessed as increase in activation of tumor infiltrating lymphocytes in spleen at 5 to 10 mg/kg, iv administered every two days for 14 days by flow cytometry analysis; type: functional, organism-based; conditions: dose 5-10 mg/kg, time 14.0 day
PC-3 [9] = experiment: Inhibition of V-ATPase activity in human PC-3 cells at 50 nM measured after 24 hrs by colorimetric assay relative to control; type: cell-based
PC-3 [10] = experiment: Induction of apoptosis in human PC-3 cells assessed as necrotic cells at 50 nM measured after 24 hrs by annexin V-FITC and PI staining based flow cytometry analysis (reference value: 6.01%); type: functional
[11] = Toxicity in ICR mouse assessed as effect on ALT level at 10 mg/kg, ip measured for 14 days; type: organism-based; conditions: in vivo, 336 h, time 14 day
PC-3 [12] = experiment: Induction of apoptosis in human PC-3 cells assessed as viable cells at 50 nM measured after 24 hrs by annexin V-FITC and PI staining based flow cytometry analysis (reference value: 90.6%); type: functional; conditions: read-out: Activity
PC-3 [13] = experiment: Induction of immunogenic cell death in human PC-3 cells assessed as increase in HMGB1 release from nuclei at 50 to 200 nM measured after 24 hrs by DAPI staining based analysis; type: functional; conditions: dose 50-200 nM
PC-3 [14] = experiment: Induction of intracellular ROS generation in human PC-3 cells incubated for 24 hrs by DCFH-DA staining based confocal microscopy based analysis; type: functional, cell-based; conditions: dose 50-200 nM
PC-3 [15] = experiment: Induction of apoptosis in human PC-3 cells assessed as viable cells at 100 nM measured after 24 hrs by annexin V-FITC and PI staining based flow cytometry analysis (reference value: 90.6%); type: functional; conditions: read-out: Activity
[16] = Toxicity in ICR mouse assessed as effect on lymphocytes at 10 mg/kg, ip measured for 14 days; type: organism-based; conditions: in vivo, 336 h, time 14 day
PC-3 [17] = experiment: Inhibition of V-ATPase activity in lysosomes of human PC-3 cells assessed as decrease in fluorescence at 50 to 200 nM incubated for 24 hrs by acridine orange staining based inverted fluorescent microscopic analysis; type: subcellular; conditions: Lysosome, dose 50-200 nM
PC-3 [18] = experiment: Induction of apoptosis in human PC-3 cells assessed as late apoptotic cells at 50 nM measured after 24 hrs by annexin V-FITC and PI staining based flow cytometry analysis (reference value: 2.37%); type: functional
PC-3 [19] = experiment: Inhibition of V-ATPase activity in human PC-3 cells at 200 nM measured after 24 hrs by colorimetric assay relative to control; type: cell-based
[20] = Antitumor activity against mouse RM1 cells xenografted in immunocompetent […] mouse model assessed as tumor growth inhibition at 5 mg/kg, iv measured every two days for 14 days relative to control; type: functional; conditions: RM1, 336 h, time 14 day, read-out: TGI
PC-3 [21] = experiment: Induction of apoptosis in human PC-3 cells assessed as increase in ADP-ribose level at 50 to 200 nM incubated for 24 hrs by Western blot analysis; type: functional, cell-based; conditions: dose 50-200 nM
PC-3 [22] = experiment: Induction of cell cycle arrest in human PC-3 cells assessed as accumulation of cells at G2/M phase at 200 nM incubated for 24 hrs by flow cytometry analysis (reference value: 19.5%); type: functional
HUVEC = experiment: Disruption of vasculature in HUVEC cells assessed as interruption of tubelike network formation incubated for 6 hrs by inverted fluorescence microscope analysis; type: functional, cell-based; conditions: Homo sapiens, dose 50-200 nM
PC-3 [23] = experiment: Induction of apoptosis in human PC-3 cells assessed as increase in Cl-PARP level at 50 to 200 nM incubated for 24 hrs by Western blot analysis; type: functional, cell-based; conditions: dose 50-200 nM
[24] = biological target: Tubulin beta (Homo sapiens) (UniProt P68371+Q9H4B7+Q13509+P04350+Q3ZCM7+P07437+Q13885+Q9BVA1+Q9BUF5+A6NNZ2); experiment: Binding affinity to beta-tubulin colchicine binding site in human PC-3 cells assessed as inhibition of EBI-beta-tubulin adduct band formation preincubated for 2 hrs followed by EBI addition measured after 1.5 hrs by EBI competition based Western blotting analysis; type: cell-based; conditions: dose 1-100 µM, time 3.5 hrs
PC-3 [25] = experiment: Induction of apoptosis in human PC-3 cells assessed as upregulation of cleaved caspase-3 level at 50 to 200 nM incubated for 24 hrs by Western blot analysis; type: functional, cell-based; conditions: dose 50-200 nM
[26] = Binding affinity to porcine brain tubulin polymerization assessed as dissociation constant measured after 20 mins by fluorescence based analysis; type: tissue-based, Sus scrofa
PC-3 [27] = experiment: Inhibition of V-ATPase activity in human PC-3 cells at 100 nM measured after 24 hrs by colorimetric assay relative to control; type: cell-based
PC-3 [28] = experiment: Inhibition of autophagy in human PC-3 cells assessed as decrease in colocalization region at 50 to 200 uM measured after 3 hrs by immunofluorescence imaging based analysis; type: functional, cell-based; conditions: dose 50-200 µM
PC-3 [29] = experiment: Induction of cell cycle arrest in human PC-3 cells assessed as reduction in cdc25c phosphorylation at ser216 residue at 50 to 200 nM incubated for 24 hrs by DAPI staining based analysis; type: functional; conditions: dose 50-200 nM
A549 = experiment: Inhibition of cell migration in human A549 cells at upto 100 nM incubated for 24 hrs by inverted fluorescence microscope analysis; type: functional, cell-based
[30] = Toxicity in ICR mouse assessed as effect on kidney at 10 mg/kg, ip measured for 14 days by H and E staining based analysis; type: organism-based; conditions: in vivo, 336 h, time 14 day
PC-3 [31] = experiment: Induction of cell cycle arrest in human PC-3 cells assessed as accumulation of cells at G2/M phase at 50 nM incubated for 24 hrs by flow cytometry analysis (reference value: 19.5%); type: functional
[32] = Antitumor immunity against mouse RM1 cells homografted in C57BL/6 mouse model assessed as increase in tumor infiltrating CD3+CD8+T cells (CTLs) at 10 mg/kg, iv administered every two days for 14 days by flow cytometry analysis (reference value: 0.89%); type: functional; conditions: time 14 day

For COc1cc(-c2nc(C(N)=O)cc3cc4c(cc23)OCCO4)cc(Br)c1OC, the Activity (PC-3 [1]) was 19.4%, the inhibition in vivo at 10 mg/kg [2] was 70.2% and the Activity (RM1 [3]) was “Active”. The IC50 (PC-3 [4]) was 0.06 µM, the viability at 0.2 µM (PC-3 [5]) was 50.9% and the Activity (PC-3 [6]) was 42.8%. The Activity [7] was “Non-Toxic”, the Activity (RM1 [8]) was “Active” and the inhibition (PC-3 [9]) was 15.8%. For the same compound, the Activity (PC-3 [10]) was 6.91%, the Activity [11] was “Non-Toxic” and the viability at 0.05 µM (PC-3 [12]) was 87.6%. The Activity (PC-3 [13]) was “Active”, the Activity (PC-3 [14]) was “Dose-Dependent Effect” and the viability at 0.1 µM (PC-3 [15]) was 61.7%. For the same compound, the Activity [16] was “Non-Toxic”, the inhibition (PC-3 [17]) was “Active” and the Activity (PC-3 [18]) was 3.51%. For the same compound, the inhibition (PC-3 [19]) was 36.7%, the inhibition in vivo at 5 mg/kg [20] was 54.6% and the Activity (PC-3 [21]) was “Active”. For the same compound, the Activity (PC-3 [22]) was 65.8%, the Activity (HUVEC) was “Active” and the Activity (PC-3 [23]) was “Active”. The Activity [24] was “Dose-Dependent Effect”, the Activity (PC-3 [25]) was “Active” and the Kd [26] was 6.56 µM. For the same compound, the inhibition (PC-3 [27]) was 26.2%, the inhibition (PC-3 [28]) was “Active” and the Activity (PC-3 [29]) was “Active”. The inhibition (A549) was “Active”, the Activity [30] was “Non-Toxic” and the Activity (PC-3 [31]) was 30.9%. For the same compound, the Activity [32] was 2.27%.
